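Each compound was tested at five concentrations against cells in 96-well plates for 48 hours. GI50 is the concentration that inhibits growth by half.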 Calls of active or inactive are those of the source. Cut-off read from the data, not from the text of the source: active = GI50 up to about 1.1 µM and inactive = higher.
How the values were obtained:
Test in all cases: NCI tumour cell line growth inhibition, 48 h
786-0 = test system: 786-0
A498 = test system: A498
A549 = test system: A549
ACHN = test system: ACHN
BT-549 = test system: BT-549
CAKI-1 = test system: CAKI-1
CCRF-CEM = test system: CCRF-CEM
COLO 205 = test system: COLO 205
DU-145 = test system: DU-145
EKVX = test system: EKVX
HCC 2998 = test system: HCC 2998
HCT-116 = test system: HCT-116
HCT-15 = test system: HCT-15
HL-60 = test system: HL-60
HOP-62 = test system: HOP-62
HOP-92 = test system: HOP-92
HT-29 = test system: HT-29
Hs-578T = test system: Hs-578T
IGROV-1 = test system: IGROV-1
K562 = test system: K562
KM12 = test system: KM12
LOX IMVI = test system: LOX IMVI
M14 = test system: M14
MCF7 = test system: MCF7
MDA-MB-231 = test system: MDA-MB-231
MDA-MB-435 = test system: MDA-MB-435
MDA-N = test system: MDA-N
MOLT-4 = test system: MOLT-4
Malme-3M = test system: Malme-3M
NCI-H226 = test system: NCI-H226
NCI-H23 = test system: NCI-H23
NCI-H460 = test system: NCI-H460
NCI-H522 = test system: NCI-H522
NCI/ADR-RES = test system: NCI/ADR-RES
OVCAR-3 = test system: OVCAR-3
OVCAR-4 = test system: OVCAR-4
OVCAR-5 = test system: OVCAR-5
OVCAR-8 = test system: OVCAR-8
PC-3 = test system: PC-3
RPMI-8226 = test system: RPMI-8226
RXF 393 = test system: RXF 393
SF-268 = test system: SF-268
SF-295 = test system: SF-295
SF-539 = test system: SF-539
SK-MEL-28 = test system: SK-MEL-28
SK-MEL-2 = test system: SK-MEL-2
SK-MEL-5 = test system: SK-MEL-5
SK-OV-3 = test system: SK-OV-3
SN12C = test system: SN12C
SNB-19 = test system: SNB-19
SNB-75 = test system: SNB-75
SR = test system: SR
SW-620 = test system: SW-620
T47D = test system: T47D
TK-10 = test system: TK-10
U-251 = test system: U-251
UACC-257 = test system: UACC-257
UO-31 = test system: UO-31
UACC-62 = test system: UACC-62

For `CC(C)(C)N1C=[N+](C(C)(C)C)CC1`, the GI50 (786-0) was > 100 µM (inactive), the GI50 (A498) was 38.7 µM (inactive) and the GI50 (A549) was > 100 µM (inactive). For the same compound, the GI50 (ACHN) was > 100 µM (inactive), the GI50 (BT-549) was > 100 µM (inactive) and the GI50 (CAKI-1) was > 100 µM (inactive). For the same compound, the GI50 (CCRF-CEM) was > 100 µM (inactive), the GI50 (COLO 205) was > 100 µM (inactive) and the GI50 (DU-145) was > 100 µM (inactive). For the same compound, the GI50 (EKVX) was > 100 µM (inactive), the GI50 (HCC 2998) was > 100 µM (inactive) and the GI50 (HCT-116) was > 100 µM (inactive). For the same compound, the GI50 (HCT-15) was over 100 µM, the GI50 (HL-60) was > 100 µM (inactive) and the GI50 (HOP-62) was > 100 µM (inactive). The GI50 (HOP-92) was > 100 µM (inactive), the GI50 (HT-29) was > 100 µM (inactive) and the GI50 (Hs-578T) was > 100 µM (inactive). The GI50 (IGROV-1) was > 100 µM (inactive), the GI50 (K562) was > 100 µM (inactive) and the GI50 (KM12) was > 100 µM (inactive). For the same compound, the GI50 (LOX IMVI) was > 100 µM (inactive), the GI50 (M14) was > 100 µM (inactive) and the GI50 (MCF7) was > 100 µM (inactive). For the same compound, the GI50 (MDA-MB-231) was > 100 µM (inactive), the GI50 (MDA-MB-435) was > 100 µM (inactive) and the GI50 (MDA-N) was > 100 µM (inactive). The GI50 (MOLT-4) was > 100 µM (inactive), the GI50 (Malme-3M) was > 100 µM (inactive) and the GI50 (NCI-H226) was > 100 µM (inactive). The GI50 (NCI-H23) was > 100 µM (inactive), the GI50 (NCI-H460) was > 100 µM (inactive) and the GI50 (NCI-H522) was > 100 µM (inactive). For the same compound, the GI50 (NCI/ADR-RES) was > 100 µM (inactive), the GI50 (OVCAR-3) was > 100 µM (inactive) and the GI50 (OVCAR-4) was > 100 µM (inactive). The GI50 (OVCAR-5) was > 100 µM (inactive), the GI50 (OVCAR-8) was > 100 µM (inactive) and the GI50 (PC-3) was > 100 µM (inactive). For the same compound, the GI50 (RPMI-8226) was > 100 µM (inactive), the GI50 (RXF 393) was > 100 µM (inactive) and the GI50 (SF-268) was > 100 µM (inactive). For the same compound, the GI50 (SF-295) was > 100 µM (inactive), the GI50 (SF-539) was > 100 µM (inactive) and the GI50 (SK-MEL-28) was > 100 µM (inactive). For the same compound, the GI50 (SK-MEL-2) was > 100 µM (inactive), the GI50 (SK-MEL-5) was > 100 µM (inactive) and the GI50 (SK-OV-3) was > 100 µM (inactive). The GI50 (SN12C) was > 100 µM (inactive), the GI50 (SNB-19) was > 100 µM (inactive) and the GI50 (SNB-75) was 75 µM (inactive). For the same compound, the GI50 (SR) was > 100 µM (inactive), the GI50 (SW-620) was > 100 µM (inactive) and the GI50 (T47D) was > 100 µM (inactive). The GI50 (TK-10) was > 100 µM (inactive), the GI50 (U-251) was > 100 µM (inactive) and the GI50 (UACC-257) was > 100 µM (inactive). For the same compound, the GI50 (UO-31) was > 100 µM (inactive).

`C/C(=N\NC(=S)N(C)C)c1nc2cccnc2[nH]1` was tested, and the GI50 (786-0) was 0.597 µM (active), the GI50 (A498) was 8.28 µM (inactive) and the GI50 (A549) was 0.792 µM (active). For the same compound, the GI50 (ACHN) was 0.618 µM (active), the GI50 (BT-549) was 0.0398 µM (active) and the GI50 (CAKI-1) was 0.501 µM (active). The GI50 (CCRF-CEM) was 0.379 µM (active), the GI50 (COLO 205) was 0.325 µM (active) and the GI50 (DU-145) was 0.504 µM (active). The GI50 (EKVX) was 0.475 µM (active), the GI50 (HCC 2998) was 0.71 µM (active) and the GI50 (HCT-116) was 0.893 µM (active). The GI50 (HCT-15) was 0.443 µM, the GI50 (HL-60) was 0.323 µM (active) and the GI50 (HOP-62) was 0.54 µM (active). The GI50 (HOP-92) was 0.275 µM (active), the GI50 (HT-29) was 0.548 µM (active) and the GI50 (Hs-578T) was 1.22 µM (inactive). The GI50 (IGROV-1) was 0.804 µM (active), the GI50 (K562) was 2.16 µM (inactive) and the GI50 (LOX IMVI) was 0.673 µM (active). For the same compound, the GI50 (M14) was 0.547 µM (active), the GI50 (MCF7) was 1.05 µM (active) and the GI50 (MDA-MB-231) was 0.875 µM (active). The GI50 (MDA-MB-435) was 0.762 µM (active), the GI50 (MDA-N) was 1.27 µM (inactive) and the GI50 (MOLT-4) was 0.406 µM (active). The GI50 (Malme-3M) was 1.38 µM (inactive), the GI50 (NCI-H226) was 0.399 µM (active) and the GI50 (NCI-H460) was 0.478 µM (active). For the same compound, the GI50 (NCI-H522) was 1.53 µM (inactive), the GI50 (NCI/ADR-RES) was 0.449 µM (active) and the GI50 (OVCAR-4) was 0.499 µM (active). The GI50 (OVCAR-5) was 0.504 µM (active), the GI50 (OVCAR-8) was 0.982 µM (active) and the GI50 (PC-3) was 0.698 µM (active). The GI50 (RPMI-8226) was 2.07 µM (inactive), the GI50 (RXF 393) was 0.596 µM (active) and the GI50 (SF-268) was 0.59 µM (active). The GI50 (SF-539) was 0.536 µM (active), the GI50 (SK-MEL-28) was 1.03 µM (active) and the GI50 (SK-MEL-2) was 0.583 µM (active). For the same compound, the GI50 (SK-MEL-5) was 0.387 µM (active), the GI50 (SK-OV-3) was 0.413 µM (active) and the GI50 (SN12C) was 1.16 µM (inactive). For the same compound, the GI50 (SNB-19) was 1.02 µM (active), the GI50 (SNB-75) was 3.18 µM (inactive) and the GI50 (SR) was 0.679 µM (active). The GI50 (SW-620) was 0.883 µM (active), the GI50 (T47D) was 0.475 µM (active) and the GI50 (TK-10) was 2.1 µM (inactive). The GI50 (U-251) was 0.494 µM (active), the GI50 (UACC-257) was 2.01 µM (inactive) and the GI50 (UACC-62) was 0.396 µM (active). The GI50 (UO-31) was 0.348 µM (active).

`COc1cccc2c(=O)oc(-c3ccccc3C)nc12` was tested, and the GI50 (786-0) was 44.8 µM (inactive), the GI50 (A498) was > 100 µM (inactive) and the GI50 (A549) was 38.2 µM (inactive). For the same compound, the GI50 (ACHN) was 43 µM (inactive), the GI50 (BT-549) was 21.5 µM (inactive) and the GI50 (CAKI-1) was 35.2 µM (inactive). For the same compound, the GI50 (CCRF-CEM) was 25.9 µM (inactive), the GI50 (COLO 205) was 39.8 µM (inactive) and the GI50 (DU-145) was 61 µM (inactive). For the same compound, the GI50 (EKVX) was > 100 µM (inactive), the GI50 (HCC 2998) was 35 µM (inactive) and the GI50 (HCT-116) was 29.5 µM (inactive). The GI50 (HCT-15) was 43.9 µM, the GI50 (HL-60) was 32 µM (inactive) and the GI50 (HOP-62) was 27.3 µM (inactive). The GI50 (HOP-92) was > 100 µM (inactive), the GI50 (HT-29) was 39 µM (inactive) and the GI50 (Hs-578T) was 43.5 µM (inactive). The GI50 (IGROV-1) was 18.7 µM (inactive), the GI50 (K562) was 39.8 µM (inactive) and the GI50 (KM12) was 38 µM (inactive). The GI50 (LOX IMVI) was 18.3 µM (inactive), the GI50 (MCF7) was 33.7 µM (inactive) and the GI50 (MDA-MB-231) was 63.7 µM (inactive). The GI50 (MDA-MB-435) was 33.6 µM (inactive), the GI50 (MDA-N) was 19.8 µM (inactive) and the GI50 (MOLT-4) was 26.7 µM (inactive). For the same compound, the GI50 (Malme-3M) was 42.2 µM (inactive), the GI50 (NCI-H226) was 19.5 µM (inactive) and the GI50 (NCI-H23) was 61.4 µM (inactive). The GI50 (NCI-H460) was 56.9 µM (inactive), the GI50 (NCI-H522) was 46.9 µM (inactive) and the GI50 (NCI/ADR-RES) was 29.2 µM (inactive). The GI50 (OVCAR-3) was 29 µM (inactive), the GI50 (OVCAR-4) was 22.7 µM (inactive) and the GI50 (OVCAR-5) was 61.4 µM (inactive). For the same compound, the GI50 (OVCAR-8) was 48.8 µM (inactive), the GI50 (PC-3) was 35.7 µM (inactive) and the GI50 (RPMI-8226) was 38.2 µM (inactive). For the same compound, the GI50 (RXF 393) was 30 µM (inactive), the GI50 (SF-268) was 43.3 µM (inactive) and the GI50 (SF-295) was 42.6 µM (inactive). For the same compound, the GI50 (SF-539) was 25.5 µM (inactive), the GI50 (SK-MEL-28) was 29.3 µM (inactive) and the GI50 (SK-MEL-2) was 26.6 µM (inactive). For the same compound, the GI50 (SK-MEL-5) was 23 µM (inactive), the GI50 (SK-OV-3) was > 100 µM (inactive) and the GI50 (SN12C) was 26.5 µM (inactive). For the same compound, the GI50 (SNB-75) was > 100 µM (inactive), the GI50 (SR) was 49.4 µM (inactive) and the GI50 (SW-620) was 40.6 µM (inactive). The GI50 (T47D) was > 100 µM (inactive), the GI50 (TK-10) was > 100 µM (inactive) and the GI50 (U-251) was 45.4 µM (inactive). The GI50 (UACC-62) was 62.1 µM (inactive) and the GI50 (UO-31) was 58.3 µM (inactive).

Reference: ChEMBL document CHEMBL1201862, “PubChem BioAssay data set” (2004)
